Experimental data taken from PubChem BioAssay AID2060488 (Molecular Pharmacology Branch, DTP, NCI, 2025).

Tested on: 966289-007-R4-J1-PDC complex spheroid viability
Experiment: Anticancer human tumor 966289-007-R4-J1-PDC patient-derived pancreatic adenocarcinoma cell line growth inhibition [GQUAD]
Conditions: for IC50: curve of first compound; for viability, T/C: stronger effect = lower value
Outline: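 Tumor cells were grown as complex spheroids with HUVEC endothelial cells and mesenchymal stem cells as stroma. G-quadruplex stabilizers were combined with targeted agents over half-log dilutions from near the clinical Cmax, or from 10 microM.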

[1] = second compound 0.0316 µM, first compound 0.0316 µM
[2] = second compound 0.0316 µM, first compound 0.1 µM
[3] = second compound 0.0316 µM, first compound 0.316 µM
[4] = second compound 0.0316 µM, first compound 1 µM
[5] = second compound 0.0316 µM, first compound 3.16 µM
[6] = second compound 0.0316 µM, first compound 10 µM
[7] = second compound 0.1 µM, first compound 0.0316 µM
[8] = second compound 0.1 µM, first compound 0.1 µM
[9] = second compound 0.1 µM, first compound 0.316 µM
[10] = second compound 0.1 µM, first compound 1 µM
[11] = second compound 0.1 µM, first compound 3.16 µM
[12] = second compound 0.1 µM, first compound 10 µM
[13] = second compound 0.316 µM, first compound 0.0316 µM
[14] = second compound 0.316 µM, first compound 0.1 µM
[15] = second compound 0.316 µM, first compound 0.316 µM
[16] = second compound 0.316 µM, first compound 1 µM
[17] = second compound 0.316 µM, first compound 3.16 µM
[18] = second compound 0.316 µM, first compound 10 µM
[19] = second compound 1 µM, first compound 0.0316 µM
[20] = second compound 1 µM, first compound 0.1 µM
[21] = second compound 1 µM, first compound 0.316 µM
[22] = second compound 1 µM, first compound 1 µM
[23] = second compound 1 µM, first compound 3.16 µM
[24] = second compound 1 µM, first compound 10 µM
[25] = second compound 3.16 µM, first compound 0.0316 µM
[26] = second compound 3.16 µM, first compound 0.1 µM
[27] = second compound 3.16 µM, first compound 0.316 µM
[28] = second compound 3.16 µM, first compound 1 µM
[29] = second compound 3.16 µM, first compound 3.16 µM
[30] = second compound 3.16 µM, first compound 10 µM
[31] = second compound 10 µM, first compound 0.0316 µM
[32] = second compound 10 µM, first compound 0.1 µM
[33] = second compound 10 µM, first compound 0.316 µM
[34] = second compound 10 µM, first compound 1 µM
[35] = second compound 10 µM, first compound 3.16 µM
[36] = second compound 10 µM, first compound 10 µM
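Note: spheroids exposed to the agents for seven days before readout.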
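Throughout, for viability, T/C: percent viability relative to DMSO vehicle control wells taken as 100%.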

Molecule O=C(c1cc(Cc2n[nH]c(=O)c3ccccc23)ccc1F)N1CCN(C(=O)C2CC2)CC1 + CN(C)c1ccc(Nc2c3ccc(NC(=O)CCN4CCCC4)cc3nc3cc(NC(=O)CCN4CCCC4)ccc23)cc1 has an IC50 (second compound 0.0316 µM) of 4.87 µM, an IC50 (second compound 0.1 µM) of 5.02 µM and an IC50 (second compound 0.316 µM) of 4.91 µM. The IC50 (second compound 1 µM) was 5.07 µM, the IC50 (second compound 3.16 µM) was 3.74 µM and the IC50 (second compound 10 µM) was 1.93 µM. For the same molecule, the viability, T/C [1] was 106%, the viability, T/C [2] was 104% and the viability, T/C [3] was 110%. For the same molecule, the viability, T/C [4] was 105%, the viability, T/C [5] was 74.2% and the viability, T/C [6] was 9.57%. The viability, T/C [7] was 104%, the viability, T/C [8] was 97.9% and the viability, T/C [9] was 107%. It also gave a viability, T/C [10] of 109%, a viability, T/C [11] of 76.7% and a viability, T/C [12] of 10.2%. For the same molecule, the viability, T/C [13] was 100%, the viability, T/C [14] was 103% and the viability, T/C [15] was 101%. For the same molecule, the viability, T/C [16] was 108%, the viability, T/C [17] was 75.1% and the viability, T/C [18] was 9.35%. The viability, T/C [19] was 99.7%, the viability, T/C [20] was 99.3% and the viability, T/C [21] was 104%. It also gave a viability, T/C [22] of 109%, a viability, T/C [23] of 79% and a viability, T/C [24] of 8.19%. The viability, T/C [25] was 105%, the viability, T/C [26] was 104% and the viability, T/C [27] was 101%. It also gave a viability, T/C [28] of 107%, a viability, T/C [29] of 57.4% and a viability, T/C [30] of 6.49%. The viability, T/C [31] was 102%, the viability, T/C [32] was 103% and the viability, T/C [33] was 104%. The viability, T/C [34] was 95.7%, the viability, T/C [35] was 15.6% and the viability, T/C [36] was 3.36%.

In the case of C=CCn1c(=O)c2cnc(Nc3ccc(N4CCN(C)CC4)cc3)nc2n1-c1cccc(C(C)(C)O)n1 + Cc1cnc(CNC(=O)c2c(=O)c3ccc(N4CCCN(C)CC4)nc3n3c2sc2ccccc23)cn1, the IC50 (second compound 0.0316 µM) is reported as 0.236 µM, the IC50 (second compound 0.1 µM) is reported as under 0.0316 µM and the IC50 (second compound 0.316 µM) is reported as under 0.0316 µM. It also gave an IC50 (second compound 1 µM) of under 0.0316 µM, an IC50 (second compound 3.16 µM) of under 0.0316 µM and an IC50 (second compound 10 µM) of under 0.0316 µM. The viability, T/C [1] was 105%, the viability, T/C [2] was 90% and the viability, T/C [3] was 36.5%. The viability, T/C [4] was 4.74%, the viability, T/C [5] was 1.95% and the viability, T/C [6] was 1.13%. It also gave a viability, T/C [7] of 29.4%, a viability, T/C [8] of 15.7% and a viability, T/C [9] of 8.35%. The viability, T/C [10] was 3.91%, the viability, T/C [11] was 2.06% and the viability, T/C [12] was 1.35%. It also gave a viability, T/C [13] of 6.91%, a viability, T/C [14] of 6.09% and a viability, T/C [15] of 5.08%. The viability, T/C [16] was 4.04%, the viability, T/C [17] was 2.11% and the viability, T/C [18] was 1.81%. For the same molecule, the viability, T/C [19] was 4.63%, the viability, T/C [20] was 4.25% and the viability, T/C [21] was 3.87%. It also gave a viability, T/C [22] of 2.82%, a viability, T/C [23] of 1.24% and a viability, T/C [24] of 1.48%. For the same molecule, the viability, T/C [25] was 2.9%, the viability, T/C [26] was 2.75% and the viability, T/C [27] was 2.77%. It also gave a viability, T/C [28] of 1.24%, a viability, T/C [29] of 0.09% and a viability, T/C [30] of 0.38%. The viability, T/C [31] was 0.06%, the viability, T/C [32] was 0.11% and the viability, T/C [33] was 0.12%. The viability, T/C [34] was 0.28%, the viability, T/C [35] was 0.46% and the viability, T/C [36] was 0.13%.

Molecule CC1COCCN1c1cc(C2(S(C)(=N)=O)CC2)nc(-c2ccnc3[nH]ccc23)n1 (stereo unspecified) + CN(C)c1ccc(Nc2c3ccc(NC(=O)CCN4CCCC4)cc3nc3cc(NC(=O)CCN4CCCC4)ccc23)cc1 has an IC50 (second compound 0.0316 µM) of 4.69 µM, an IC50 (second compound 0.1 µM) of 4.36 µM and an IC50 (second compound 0.316 µM) of 4.25 µM. The IC50 (second compound 1 µM) was 4.42 µM, the IC50 (second compound 3.16 µM) was 3.93 µM and the IC50 (second compound 10 µM) was 2 µM. For the same molecule, the viability, T/C [1] was 106%, the viability, T/C [2] was 102% and the viability, T/C [3] was 102%. The viability, T/C [4] was 101%, the viability, T/C [5] was 69.8% and the viability, T/C [6] was 12.3%. It also gave a viability, T/C [7] of 100%, a viability, T/C [8] of 101% and a viability, T/C [9] of 102%. It also gave a viability, T/C [10] of 105%, a viability, T/C [11] of 64.7% and a viability, T/C [12] of 12.1%. It also gave a viability, T/C [13] of 99.8%, a viability, T/C [14] of 102% and a viability, T/C [15] of 104%. It also gave a viability, T/C [16] of 99.8%, a viability, T/C [17] of 62.6% and a viability, T/C [18] of 12.8%. For the same molecule, the viability, T/C [19] was 89.5%, the viability, T/C [20] was 97% and the viability, T/C [21] was 104%. The viability, T/C [22] was 103%, the viability, T/C [23] was 65.5% and the viability, T/C [24] was 12.3%. The viability, T/C [25] was 99.8%, the viability, T/C [26] was 100% and the viability, T/C [27] was 106%. The viability, T/C [28] was 104%, the viability, T/C [29] was 58.8% and the viability, T/C [30] was 12.4%. The viability, T/C [31] was 104%, the viability, T/C [32] was 101% and the viability, T/C [33] was 101%. For the same molecule, the viability, T/C [34] was 94%, the viability, T/C [35] was 20.9% and the viability, T/C [36] was 4.7%.
